In PMC5392334, “Discovery and characterization of a novel irreversible EGFR mutants selective and potent kinase inhibitor CHMFL-EGFR-26 with a distinct binding mode” (Oncotarget, 2017):

Key:
EGFR(L861Q) = biological target: T1, EGFR(L861Q) (Homo sapiens, UniProt P00533, L861Q); assay: KinomeScan; type: binding; conditions: read-out: % control
T1 construct: purchased DiscoveRx KINOMEscan

AKT2 = biological target: T2, AKT2 (Homo sapiens, UniProt P31751); assay: KinomeScan; type: binding; conditions: read-out: % control
T2 construct: purchased DiscoveRx KINOMEscan

MLK1 = biological target: T3, MLK1 (Homo sapiens, UniProt P80192); assay: KinomeScan; type: binding; conditions: read-out: % control
T3 construct: purchased DiscoveRx KINOMEscan
T3 sequence (P80192 whole entry): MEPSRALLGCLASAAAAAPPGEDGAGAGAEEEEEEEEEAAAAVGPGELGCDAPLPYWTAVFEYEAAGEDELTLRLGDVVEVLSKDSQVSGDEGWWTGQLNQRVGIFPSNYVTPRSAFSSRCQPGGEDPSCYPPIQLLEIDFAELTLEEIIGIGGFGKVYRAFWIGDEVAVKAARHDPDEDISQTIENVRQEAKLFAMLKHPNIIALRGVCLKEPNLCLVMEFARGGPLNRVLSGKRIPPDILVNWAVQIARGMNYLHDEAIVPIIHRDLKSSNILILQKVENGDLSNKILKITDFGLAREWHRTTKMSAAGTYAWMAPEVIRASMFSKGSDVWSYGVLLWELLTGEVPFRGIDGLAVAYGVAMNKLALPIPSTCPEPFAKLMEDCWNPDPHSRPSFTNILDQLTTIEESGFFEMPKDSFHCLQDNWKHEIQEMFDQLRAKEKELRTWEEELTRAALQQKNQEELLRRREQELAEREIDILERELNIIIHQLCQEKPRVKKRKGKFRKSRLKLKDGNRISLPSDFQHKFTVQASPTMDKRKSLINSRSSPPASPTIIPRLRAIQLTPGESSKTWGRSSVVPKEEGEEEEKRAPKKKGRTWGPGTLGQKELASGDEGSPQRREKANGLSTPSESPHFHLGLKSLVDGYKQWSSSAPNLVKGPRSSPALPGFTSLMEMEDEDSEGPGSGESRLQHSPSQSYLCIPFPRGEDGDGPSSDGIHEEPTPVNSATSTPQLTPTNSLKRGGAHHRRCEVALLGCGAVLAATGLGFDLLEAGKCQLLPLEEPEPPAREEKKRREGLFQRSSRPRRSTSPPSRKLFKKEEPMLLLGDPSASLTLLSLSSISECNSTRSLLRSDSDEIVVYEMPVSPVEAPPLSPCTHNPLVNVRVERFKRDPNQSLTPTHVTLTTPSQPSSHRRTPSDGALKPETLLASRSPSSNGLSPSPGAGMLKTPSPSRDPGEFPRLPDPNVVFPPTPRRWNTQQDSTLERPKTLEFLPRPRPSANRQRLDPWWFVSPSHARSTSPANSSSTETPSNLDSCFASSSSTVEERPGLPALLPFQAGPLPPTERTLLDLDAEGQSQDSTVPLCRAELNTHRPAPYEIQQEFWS

HIPK2 = biological target: T4, HIPK2 (Homo sapiens, UniProt Q9H2X6); assay: KinomeScan; type: binding; conditions: read-out: % control
T4 construct: purchased DiscoveRx KINOMEscan

DAPK3 = biological target: T5, DAPK3 (Homo sapiens, UniProt O43293); assay: KinomeScan; type: binding; conditions: read-out: % control
T5 construct: purchased DiscoveRx KINOMEscan

LOK = biological target: T6, LOK (Homo sapiens, UniProt O94804); assay: KinomeScan; type: binding; conditions: read-out: % control
T6 construct: purchased DiscoveRx KINOMEscan

[1] = biological target: T7, TYK2(JH1domain-catalytic) (Homo sapiens, UniProt P29597); assay: KinomeScan; type: binding; conditions: read-out: % control
T7 construct: TYK2(JH1domain-catalytic); purchased DiscoveRx KINOMEscan

CSF1R = biological target: T8, CSF1R (Homo sapiens, UniProt P07333); assay: KinomeScan; type: binding; conditions: read-out: % control
T8 construct: purchased DiscoveRx KINOMEscan

BaF3-TEL-EGFR-C797S = assay: Anti-proliferation, BaF3 isogenic cell lines (CellTiter-Glo); type: cell-based; conditions: Mus musculus, 72 hours, triplet testing
CLK3 = biological target: T9, CLK3 (Homo sapiens, UniProt P49761); assay: KinomeScan; type: binding; conditions: read-out: % control
T9 construct: purchased DiscoveRx KINOMEscan

CDK2 = biological target: T10, CDK2 (Homo sapiens, UniProt P24941); assay: KinomeScan; type: binding; conditions: read-out: % control
T10 construct: purchased DiscoveRx KINOMEscan

LIMK2 = biological target: T11, LIMK2 (Homo sapiens, UniProt P53671); assay: KinomeScan; type: binding; conditions: read-out: % control
T11 construct: purchased DiscoveRx KINOMEscan

RIPK5 = biological target: T12, RIPK5 (Homo sapiens, UniProt Q6XUX3); assay: KinomeScan; type: binding; conditions: read-out: % control
T12 construct: purchased DiscoveRx KINOMEscan

MELK = biological target: T13, MELK (Homo sapiens, UniProt Q14680); assay: KinomeScan; type: binding; conditions: read-out: % control
T13 construct: purchased DiscoveRx KINOMEscan

MET(M1250T) = biological target: T14, MET(M1250T) (Homo sapiens, UniProt P08581, M1250T); assay: KinomeScan; type: binding; conditions: read-out: % control
T14 construct: purchased DiscoveRx KINOMEscan

FLT3(N841I) = biological target: T15, FLT3(N841I) (Homo sapiens, UniProt P36888, N841I); assay: KinomeScan; type: binding; conditions: read-out: % control
T15 construct: purchased DiscoveRx KINOMEscan

PRKR = biological target: T16, PRKR (Homo sapiens, UniProt P19525); assay: KinomeScan; type: binding; conditions: read-out: % control
T16 construct: purchased DiscoveRx KINOMEscan

AURKA = biological target: T17, AURKA (Homo sapiens, UniProt O14965); assay: KinomeScan; type: binding; conditions: read-out: % control
T17 construct: purchased DiscoveRx KINOMEscan

MUSK = biological target: T18, MUSK (Homo sapiens, UniProt O15146); assay: KinomeScan; type: binding; conditions: read-out: % control
T18 construct: purchased DiscoveRx KINOMEscan

FLT4 = biological target: T19, FLT4 (Homo sapiens, UniProt P35916); assay: KinomeScan; type: binding; conditions: read-out: % control
T19 construct: purchased DiscoveRx KINOMEscan
T19 sequence (P35916 25-1363): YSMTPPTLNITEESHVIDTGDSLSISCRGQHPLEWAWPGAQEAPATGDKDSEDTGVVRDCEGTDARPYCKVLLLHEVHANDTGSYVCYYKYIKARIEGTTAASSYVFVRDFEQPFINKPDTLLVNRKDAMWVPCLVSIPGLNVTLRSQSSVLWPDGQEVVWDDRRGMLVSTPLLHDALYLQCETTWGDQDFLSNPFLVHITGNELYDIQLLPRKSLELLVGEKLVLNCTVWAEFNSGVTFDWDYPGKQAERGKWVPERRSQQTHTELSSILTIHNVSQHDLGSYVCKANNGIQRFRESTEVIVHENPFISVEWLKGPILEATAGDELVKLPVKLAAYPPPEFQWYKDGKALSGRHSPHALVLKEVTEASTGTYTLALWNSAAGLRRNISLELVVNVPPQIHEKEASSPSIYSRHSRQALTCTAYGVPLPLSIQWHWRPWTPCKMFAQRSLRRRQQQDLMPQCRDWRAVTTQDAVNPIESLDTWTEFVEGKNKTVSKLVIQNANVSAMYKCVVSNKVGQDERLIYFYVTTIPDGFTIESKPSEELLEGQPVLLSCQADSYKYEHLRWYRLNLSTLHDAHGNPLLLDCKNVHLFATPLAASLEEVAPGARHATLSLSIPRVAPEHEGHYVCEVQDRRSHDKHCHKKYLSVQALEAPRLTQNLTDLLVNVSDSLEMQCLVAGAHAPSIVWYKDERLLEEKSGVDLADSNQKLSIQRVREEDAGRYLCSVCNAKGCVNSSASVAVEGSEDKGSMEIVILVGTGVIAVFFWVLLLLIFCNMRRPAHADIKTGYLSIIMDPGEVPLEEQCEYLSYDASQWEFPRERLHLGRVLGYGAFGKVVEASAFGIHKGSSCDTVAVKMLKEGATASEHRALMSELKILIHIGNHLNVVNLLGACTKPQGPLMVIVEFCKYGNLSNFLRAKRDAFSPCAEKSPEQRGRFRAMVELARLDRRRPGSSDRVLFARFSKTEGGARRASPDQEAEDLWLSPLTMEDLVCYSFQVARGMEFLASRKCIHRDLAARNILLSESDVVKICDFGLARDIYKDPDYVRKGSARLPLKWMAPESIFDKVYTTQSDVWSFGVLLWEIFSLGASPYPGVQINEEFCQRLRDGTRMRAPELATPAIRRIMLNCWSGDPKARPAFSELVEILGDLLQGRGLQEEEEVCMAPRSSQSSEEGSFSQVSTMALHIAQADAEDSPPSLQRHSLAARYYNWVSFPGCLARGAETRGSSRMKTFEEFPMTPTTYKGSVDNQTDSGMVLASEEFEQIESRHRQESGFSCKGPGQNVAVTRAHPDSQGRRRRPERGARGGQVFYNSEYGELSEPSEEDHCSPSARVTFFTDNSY

KIT(V559D) = biological target: T20, KIT(V559D) (Homo sapiens, UniProt P10721, V559D); assay: KinomeScan; type: binding; conditions: read-out: % control
T20 construct: purchased DiscoveRx KINOMEscan
T20 sequence (P10721 26-976 V559D): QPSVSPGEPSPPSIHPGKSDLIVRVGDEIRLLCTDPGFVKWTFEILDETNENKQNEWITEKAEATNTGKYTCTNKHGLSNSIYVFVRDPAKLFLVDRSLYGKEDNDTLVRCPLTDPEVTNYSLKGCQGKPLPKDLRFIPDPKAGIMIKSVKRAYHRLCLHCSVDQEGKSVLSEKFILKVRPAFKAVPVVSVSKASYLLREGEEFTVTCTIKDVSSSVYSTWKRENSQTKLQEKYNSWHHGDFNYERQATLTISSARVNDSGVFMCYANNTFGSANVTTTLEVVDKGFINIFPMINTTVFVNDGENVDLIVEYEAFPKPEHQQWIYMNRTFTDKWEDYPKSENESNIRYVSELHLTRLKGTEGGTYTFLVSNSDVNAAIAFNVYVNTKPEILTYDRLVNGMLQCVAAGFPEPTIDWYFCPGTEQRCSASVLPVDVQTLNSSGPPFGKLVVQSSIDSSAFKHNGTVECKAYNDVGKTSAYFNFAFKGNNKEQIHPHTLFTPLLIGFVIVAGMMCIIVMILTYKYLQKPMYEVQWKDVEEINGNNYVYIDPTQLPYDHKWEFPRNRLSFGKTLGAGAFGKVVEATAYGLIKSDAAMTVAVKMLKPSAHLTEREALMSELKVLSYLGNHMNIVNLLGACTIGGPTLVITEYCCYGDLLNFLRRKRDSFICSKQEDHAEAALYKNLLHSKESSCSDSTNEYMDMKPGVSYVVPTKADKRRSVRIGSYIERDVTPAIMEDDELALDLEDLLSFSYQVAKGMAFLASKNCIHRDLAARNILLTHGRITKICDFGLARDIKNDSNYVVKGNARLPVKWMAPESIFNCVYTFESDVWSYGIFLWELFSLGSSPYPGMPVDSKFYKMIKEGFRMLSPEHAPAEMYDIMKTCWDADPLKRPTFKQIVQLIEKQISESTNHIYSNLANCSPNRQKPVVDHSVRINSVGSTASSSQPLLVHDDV

CAMK2B = biological target: T21, CAMK2B (Homo sapiens, UniProt Q13554); assay: KinomeScan; type: binding; conditions: read-out: % control
T21 construct: purchased DiscoveRx KINOMEscan
T21 sequence (Q13554 whole entry): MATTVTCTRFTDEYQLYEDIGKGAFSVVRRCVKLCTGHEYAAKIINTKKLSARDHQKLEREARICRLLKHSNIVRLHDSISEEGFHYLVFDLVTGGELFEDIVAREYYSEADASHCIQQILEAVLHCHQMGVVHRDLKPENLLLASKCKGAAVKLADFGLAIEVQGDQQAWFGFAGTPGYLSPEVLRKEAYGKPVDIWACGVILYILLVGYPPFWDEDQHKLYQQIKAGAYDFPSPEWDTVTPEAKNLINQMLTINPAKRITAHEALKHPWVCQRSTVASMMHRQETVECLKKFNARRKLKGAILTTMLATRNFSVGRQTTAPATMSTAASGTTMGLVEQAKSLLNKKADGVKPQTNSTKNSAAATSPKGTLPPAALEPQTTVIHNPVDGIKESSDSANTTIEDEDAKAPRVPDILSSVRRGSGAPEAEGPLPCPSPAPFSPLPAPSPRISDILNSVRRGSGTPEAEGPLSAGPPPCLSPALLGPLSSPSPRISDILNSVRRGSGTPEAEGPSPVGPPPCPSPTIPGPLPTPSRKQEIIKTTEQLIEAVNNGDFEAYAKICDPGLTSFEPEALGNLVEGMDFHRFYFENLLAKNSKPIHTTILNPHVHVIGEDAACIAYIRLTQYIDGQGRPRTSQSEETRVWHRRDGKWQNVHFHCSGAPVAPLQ

EGFR(L858R) = biological target: T22, EGFR(L858R) (Homo sapiens, UniProt P00533, L858R); assay: KinomeScan; type: binding; conditions: read-out: % control
T22 construct: purchased DiscoveRx KINOMEscan

BMPR1B = biological target: T23, BMPR1B (Homo sapiens, UniProt O00238); assay: KinomeScan; type: binding; conditions: read-out: % control
T23 construct: purchased DiscoveRx KINOMEscan

MAST1 = biological target: T24, MAST1 (Homo sapiens, UniProt Q9Y2H9); assay: KinomeScan; type: binding; conditions: read-out: % control
T24 construct: purchased DiscoveRx KINOMEscan

PFTAIRE2 = biological target: T25, PFTAIRE2 (Homo sapiens, UniProt Q96Q40); assay: KinomeScan; type: binding; conditions: read-out: % control
T25 construct: purchased DiscoveRx KINOMEscan

WNK1 = biological target: T26, WNK1 (Homo sapiens, UniProt Q9H4A3); assay: KinomeScan; type: binding; conditions: read-out: % control
T26 construct: purchased DiscoveRx KINOMEscan

TGFBR2 = biological target: T27, TGFBR2 (Homo sapiens, UniProt P37173); assay: KinomeScan; type: binding; conditions: read-out: % control
T27 construct: purchased DiscoveRx KINOMEscan

[2] = biological target: T28, JAK1(JH2domain-pseudokinase) (Homo sapiens, UniProt P23458); assay: KinomeScan; type: binding; conditions: read-out: % control
T28 construct: JAK1(JH2domain-pseudokinase); purchased DiscoveRx KINOMEscan
T28 sequence (P23458 583-855 limits assumed): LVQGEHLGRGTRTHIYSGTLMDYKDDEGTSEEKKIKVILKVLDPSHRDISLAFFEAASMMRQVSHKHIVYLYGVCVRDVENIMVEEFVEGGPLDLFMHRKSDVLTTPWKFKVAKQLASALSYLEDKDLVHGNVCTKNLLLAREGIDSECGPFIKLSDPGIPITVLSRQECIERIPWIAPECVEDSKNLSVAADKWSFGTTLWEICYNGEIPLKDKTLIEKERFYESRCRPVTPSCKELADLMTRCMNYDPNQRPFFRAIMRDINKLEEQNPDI

MEK4 = biological target: T29, MEK4 (Homo sapiens, UniProt P45985); assay: KinomeScan; type: binding; conditions: read-out: % control
T29 construct: purchased DiscoveRx KINOMEscan

MEK1 = biological target: T30, MEK1 (Homo sapiens, UniProt Q02750); assay: KinomeScan; type: binding; conditions: read-out: % control
T30 construct: purchased Invitrogen (SelectScreen service)

MAK = biological target: T31, MAK (Homo sapiens, UniProt P20794); assay: KinomeScan; type: binding; conditions: read-out: % control
T31 construct: purchased DiscoveRx KINOMEscan

VPS34 = biological target: T32, VPS34 (Homo sapiens, UniProt Q8NEB9); assay: KinomeScan; type: binding; conditions: read-out: % control
T32 construct: purchased DiscoveRx KINOMEscan

JNK3 = biological target: T33, JNK3 (Homo sapiens, UniProt P53779); assay: KinomeScan; type: binding; conditions: read-out: % control
T33 construct: purchased DiscoveRx KINOMEscan

MRCKB = biological target: T34, MRCKB (Homo sapiens, UniProt Q9Y5S2); assay: KinomeScan; type: binding; conditions: read-out: % control
T34 construct: purchased DiscoveRx KINOMEscan

PIK3CA(I800L) = biological target: T35, PIK3CA(I800L) (Homo sapiens, UniProt P42336, I800L); assay: KinomeScan; type: binding; conditions: read-out: % control
T35 construct: purchased DiscoveRx KINOMEscan

SNARK = biological target: T36, SNARK (Homo sapiens, UniProt Q9H093); assay: KinomeScan; type: binding; conditions: read-out: % control
T36 construct: purchased DiscoveRx KINOMEscan
T36 sequence (Q9H093 whole entry): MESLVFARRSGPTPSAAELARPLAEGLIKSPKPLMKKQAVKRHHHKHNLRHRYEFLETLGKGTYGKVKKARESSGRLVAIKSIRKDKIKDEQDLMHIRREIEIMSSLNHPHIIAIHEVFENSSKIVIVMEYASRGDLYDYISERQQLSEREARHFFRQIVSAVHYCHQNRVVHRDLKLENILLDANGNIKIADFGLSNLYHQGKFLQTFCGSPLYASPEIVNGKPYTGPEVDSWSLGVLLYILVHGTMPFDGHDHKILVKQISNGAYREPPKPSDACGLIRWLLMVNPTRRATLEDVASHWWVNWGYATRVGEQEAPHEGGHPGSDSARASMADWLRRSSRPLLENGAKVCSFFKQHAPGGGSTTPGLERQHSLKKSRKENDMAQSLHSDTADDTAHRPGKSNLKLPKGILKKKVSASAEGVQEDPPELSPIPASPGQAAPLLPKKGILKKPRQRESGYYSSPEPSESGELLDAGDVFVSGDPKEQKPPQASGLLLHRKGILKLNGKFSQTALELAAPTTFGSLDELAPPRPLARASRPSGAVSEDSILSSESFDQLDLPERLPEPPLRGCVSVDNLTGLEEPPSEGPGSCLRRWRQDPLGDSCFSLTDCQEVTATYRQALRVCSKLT

MAP4K5 = biological target: T37, MAP4K5 (Homo sapiens, UniProt Q9Y4K4); assay: KinomeScan; type: binding; conditions: read-out: % control
T37 construct: purchased DiscoveRx KINOMEscan

## C=CC(=O)N1CCC[C@@H](n2nc(-c3ccc(OCc4cccc(C)n4)c(Cl)c3)c3c(N)ncnc32)C1 [CHMFL-EGFR-26]
EGFR(L861Q)
  remaining binding at 1 µM: 0.9%
AKT2
  remaining binding at 1 µM: 86%
MLK1
  remaining binding at 1 µM: 99%
HIPK2
  remaining binding at 1 µM: 100%
DAPK3
  remaining binding at 1 µM: 98%
LOK
  remaining binding at 1 µM: 0.2%
[1]
  remaining binding at 1 µM: 100%
CSF1R
  remaining binding at 1 µM: 98%
BaF3-TEL-EGFR-C797S
  GI50: 2500 nM
CLK3
  remaining binding at 1 µM: 100%
CDK2
  remaining binding at 1 µM: 100%
LIMK2
  remaining binding at 1 µM: 100%
RIPK5
  remaining binding at 1 µM: 13%
MELK
  remaining binding at 1 µM: 41%
MET(M1250T)
  remaining binding at 1 µM: 90%
FLT3(N841I)
  remaining binding at 1 µM: 93%
PRKR
  remaining binding at 1 µM: 80%
AURKA
  remaining binding at 1 µM: 97%
MUSK
  remaining binding at 1 µM: 84%
FLT4
  remaining binding at 1 µM: 99%
KIT(V559D)
  remaining binding at 1 µM: 100%
CAMK2B
  remaining binding at 1 µM: 97%
EGFR(L858R)
  remaining binding at 1 µM: 2.5%
BMPR1B
  remaining binding at 1 µM: 97%
MAST1
  remaining binding at 1 µM: 93%
PFTAIRE2
  remaining binding at 1 µM: 97%
WNK1
  remaining binding at 1 µM: 100%
TGFBR2
  remaining binding at 1 µM: 100%
[2]
  remaining binding at 1 µM: 84%
MEK4
  remaining binding at 1 µM: 80%
MEK1
  remaining binding at 1 µM: 0.3%
MAK
  remaining binding at 1 µM: 100%
VPS34
  remaining binding at 1 µM: 89%
JNK3
  remaining binding at 1 µM: 86%
MRCKB
  remaining binding at 1 µM: 80%
PIK3CA(I800L)
  remaining binding at 1 µM: 100%
SNARK
  remaining binding at 1 µM: 25%
MAP4K5
  remaining binding at 1 µM: 54%
